Target: T1, NLRP3 (Homo sapiens, UniProt Q96P20)
T1 construct: Seed THP-1 cells (5.56*10^5 cells/mL) containing 1.0 ug/mL LPS; endogenous in cells; host or cells: THP-1 cells
Assay: THP-1 LPS/nigericin IL1β release (pyroptosis assay), HTRF
Assay type: cell-based
Settings: NLRP3 inhibitory activity; THP-1 cells, 1.0 ug/mL LPS, compound 3 hrs, nigericin 5 uM 1 hr, IL1β in supernatant
Experimental: The following method was used for compound screening. • 1. Seed THP-1 cells (5.56*10^5 cells/mL) containing 1.0 ug/mL LPS (SIGMA, L6529) in 45 uL RPMI 1640 medium (without FBS) into 384-well plate (Thermo Scientific, 164688). • 2. Add 5 uL compound (10 doses starting from 5 uM, 1:3 dilution) or vehicle (0.05% DMSO in medium) to the appropriate wells. • 3. Centrifuge the plates at 1000 rpm for 2 mins and incubate for 3 hrs at 37° C., 5% CO2. • 4. Add 5 uL nigericin (MEC, HY-100381) (final conc. 5 uM) to sample wells and positive control wells; add 5 uL RPMI 1640 medium to negative control wells. • 5. Centrifuge plates at 1000 rpm for 2 mins and incubate for 1 hr at 37° C., 5% CO2. • 6. At the end of the incubation period, centrifuge plates at 1000 rpm for 6 mins and transfer 8 uL supernatant into 384-well assay plates (PerkinElmer, 6008280). • 7. Add 8 ul RPMI 1640 medium into each well and spin down for 10 secs. • 8. Prepare the standard solutions and pre-mixed IL1β antibodie solution of Human IL1β kits (PerkinElmer, 62HIL1BPEH) according to the instruction. • 9. Add 16 uL standard solutions into clear wells of 384-well assay plates. • 10. Add 4 uL pre-mixed IL1β antibodie solution to all wells including sample wells, positive control wells, negative control wells and standard solutions wells. • 11. Seal the plates, spin down for 10 secs, incubation for overnight at RT and read on an HTRF® compatible reader (BMG LABTECH, PHERAstar FS). • 12. The concentrations of IL1β for treated wells are calculated by the standard curve. • 13. The IC50 data is fitted to a non-liner regression equation (log inhibitor vs. response—Variable slope four parameters)).

T1 sequence (Q96P20 whole entry): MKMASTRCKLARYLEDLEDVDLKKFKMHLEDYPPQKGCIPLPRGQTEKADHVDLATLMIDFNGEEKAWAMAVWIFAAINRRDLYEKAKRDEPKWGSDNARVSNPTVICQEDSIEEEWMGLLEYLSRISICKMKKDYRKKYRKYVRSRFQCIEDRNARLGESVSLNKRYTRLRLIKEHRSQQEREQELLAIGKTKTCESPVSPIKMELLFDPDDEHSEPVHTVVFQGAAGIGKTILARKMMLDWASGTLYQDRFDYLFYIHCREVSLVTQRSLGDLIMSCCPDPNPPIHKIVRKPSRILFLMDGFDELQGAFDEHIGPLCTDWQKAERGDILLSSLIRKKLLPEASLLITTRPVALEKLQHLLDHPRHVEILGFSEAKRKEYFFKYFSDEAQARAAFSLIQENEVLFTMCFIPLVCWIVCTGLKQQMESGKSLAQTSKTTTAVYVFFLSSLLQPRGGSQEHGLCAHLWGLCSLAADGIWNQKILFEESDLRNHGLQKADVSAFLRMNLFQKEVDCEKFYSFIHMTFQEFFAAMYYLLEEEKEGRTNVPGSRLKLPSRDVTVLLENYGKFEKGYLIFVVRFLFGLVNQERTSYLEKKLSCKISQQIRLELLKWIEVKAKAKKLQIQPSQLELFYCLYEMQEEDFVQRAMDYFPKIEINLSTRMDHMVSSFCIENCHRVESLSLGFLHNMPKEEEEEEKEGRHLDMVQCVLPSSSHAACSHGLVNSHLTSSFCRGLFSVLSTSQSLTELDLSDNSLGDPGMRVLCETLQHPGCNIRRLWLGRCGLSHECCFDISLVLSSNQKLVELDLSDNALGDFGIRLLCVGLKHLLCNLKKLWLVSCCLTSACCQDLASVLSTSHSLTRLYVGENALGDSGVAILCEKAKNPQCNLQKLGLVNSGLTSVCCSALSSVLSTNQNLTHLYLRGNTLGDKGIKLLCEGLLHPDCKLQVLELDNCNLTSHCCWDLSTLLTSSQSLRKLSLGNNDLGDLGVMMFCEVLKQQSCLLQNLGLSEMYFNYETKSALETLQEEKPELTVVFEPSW

`Cc1cc2c(c(NC(=O)NS(=O)(=O)c3cn4c(n3)C(C3CC3)OCC4)c1-c1ccn3nccc3c1)CCC2` (stereo not drawn) [Example 18, 8-cyclopropyl-N-((6-methyl-5-(pyrazolo[1,5-a]pyridin-5-yl)-2,3-dihydro-1H-inden-4-yl)carbamoyl)-5,6-dihydro-8H-imidazo[2,1-c][1,4]oxazine-2-sulfonamide] gave an IC50 of at most 100 nM.
`CO[C@@H]1COc2c(S(=O)(=O)NC(=O)Nc3c4c(cc(C)c3-c3ccc5ccnn5c3)CCC4)cnn2C1` [Example 29, (S)-6-methoxy-N-((6-methyl-5-(pyrazolo[1,5-a]pyridin-6-yl)-2,3-dihydro-1H-inden-4-yl)carbamoyl)-6,7-dihydro-5H-pyrazolo[5,1-b][1,3]oxazine-3-sulfonamide] was tested, and the IC50 was at most 100 nM.
For `Cc1cc2c(c(NC(=O)NS(=O)(=O)c3cnc4c(c3)N(C3CC3)CCO4)c1-c1ccn3nccc3c1)CCC2` [Example 25, 1-cyclopropyl-N-((6-methyl-5-(pyrazolo[1,5-a]pyridin-5-yl)-2,3-dihydro-1H-inden-4-yl)carbamoyl)-2,3-dihydro-1H-pyrido[2,3-b][1,4]oxazine-7-sulfonamide], the IC50 was at most 100 nM.
With `Cc1cc2c(c(NC(=O)NS(=O)(=O)c3cnn4c3COCC4)c1-c1ccnc3[nH]ccc13)CCC2` [Example 21, N-((6-methyl-5-(1H-pyrrolo[2,3-b]pyridin-4-yl)-2,3-dihydro-1H-inden-4-yl)carbamoyl)-6,7-dihydro-4H-pyrazolo[5,1-c][1,4]oxazine-3-sulfonamide] the IC50 was 100 to 500 nM.
With `O=C(Nc1c(-c2ccn3ccnc3c2)ccc2c1CCC2)NS(=O)(=O)c1cc2n(n1)CCO[C@@H]2C1CC1` (single isomer, unassigned) [Example 11] the IC50 was 100 to 500 nM.
With `CO[C@@H]1COc2c(S(=O)(=O)NC(=O)Nc3c4c(cc(C)c3-c3ccc5nccn5c3)CCC4)cnn2C1` [Example 30, (S)-N-((5-(imidazo[1,2-a]pyridin-6-yl)-6-methyl-2,3-dihydro-1H-inden-4-yl)carbamoyl)-6-methoxy-6,7-dihydro-5H-pyrazolo[5,1-b][1,3]oxazine-3-sulfonamide] the IC50 was at most 100 nM.
`Cc1cc2c(c(NC(=O)NS(=O)(=O)c3cc4n(n3)CCO[C@@H]4C3CC3)c1-c1ccn3ccnc3c1)CCC2` (single isomer, unassigned) [Example 15] was tested, and the IC50 was at most 100 nM.
With `Cc1cc2c(c(NC(=O)NS(=O)(=O)c3cc4n(n3)CCOC4(C)C)c1-c1ccnc3[nH]ccc13)CCC2` [Example 20, 4,4-dimethyl-N-((6-methyl-5-(1H-pyrrolo[2,3-b]pyridin-4-yl)-2,3-dihydro-1H-inden-4-yl)carbamoyl)-6,7-dihydro-4H-pyrazolo[5,1-c][1,4]oxazine-2-sulfonamide] the IC50 was 100 to 500 nM.
Compound `O=C(Nc1c(-c2ccn3nccc3c2)ccc2c1CCC2)NS(=O)(=O)c1cc2n(n1)C(C1CC1)COC2` (stereo not drawn) [Example 16, 7-cyclopropyl-N-((5-(pyrazolo[1,5-a]pyridin-5-yl)-2,3-dihydro-1H-inden-4-yl)carbamoyl)-6,7-dihydro-4H-pyrazolo[5,1-c][1,4]oxazine-2-sulfonamide] has an IC50 of 100 to 500 nM.
`Cc1cc2c(c(NC(=O)NS(=O)(=O)c3cn4c(n3)C(C3CC3)OCC4)c1-c1ccnc3[nH]ccc13)CCC2` (stereo not drawn) [Example 19, 8-cyclopropyl-N-((6-methyl-5-(1H-pyrrolo[2,3-b]pyridin-4-yl)-2,3-dihydro-1H-inden-4-yl)carbamoyl)-5,6-dihydro-8H-imidazo[2,1-c][1,4]oxazine-2-sulfonamide] gave an IC50 of 500 to 1000 nM.
In the case of `O=C(Nc1c(-c2ccc3ccnn3c2)ccc2c1CCC2)NS(=O)(=O)c1cc2n(n1)CCO[C@H]2C1CC1` (single isomer, unassigned) [Example 6], the IC50 is reported as 100 to 500 nM.
`O=C(Nc1c(-c2ccc3ncnn3c2)ccc2c1CCC2)NS(=O)(=O)c1cc2n(n1)CCO[C@H]2C1CC1` (single isomer, unassigned) [Example 8] was tested, and the IC50 was 100 to 500 nM.
`O=C(Nc1c(-c2ccc3nncn3c2)ccc2c1CCC2)NS(=O)(=O)c1cc2n(n1)CCO[C@@H]2C1CC1` (single isomer, unassigned) [Example 14] gave an IC50 of 500 to 1000 nM.
In the case of `O=C(Nc1c(-c2ccn3nccc3c2)ccc2c1CCC2)NS(=O)(=O)c1cnc2c(c1)N(C1CC1)CCO2` [Example 24, 1-cyclopropyl-N-((5-(pyrazolo[1,5-a]pyridin-5-yl)-2,3-dihydro-1H-inden-4-yl)carbamoyl)-2,3-dihydro-1H-pyrido[2,3-b][1,4]oxazine-7-sulfonamide], the IC50 is reported as at most 100 nM.
`Cc1cc2c(c(NC(=O)NS(=O)(=O)c3cc4n(n3)CCO[C@@H]4C3CC3)c1-c1ccn3nccc3c1)CCC2` (single isomer, unassigned) [Example 9] gave an IC50 of at most 100 nM.
`CO[C@@H]1COc2c(S(=O)(=O)NC(=O)Nc3c4c(cc(C)c3-c3ccn5ccnc5c3)CCC4)cnn2C1` [Example 28, (S)-N-((5-(imidazo[1,2-a]pyridin-7-yl)-6-methyl-2,3-dihydro-1H-inden-4-yl)carbamoyl)-6-methoxy-6,7-dihydro-5H-pyrazolo[5,1-b][1,3]oxazine-3-sulfonamide] was tested, and the IC50 was at most 100 nM.
`Cc1cc2c(c(NC(=O)NS(=O)(=O)c3cc4n(n3)CCOC4)c1-c1ccn3nccc3c1)CCC2` [Example 23, N-((6-methyl-5-(pyrazolo[1,5-a]pyridin-5-yl)-2,3-dihydro-1H-inden-4-yl)carbamoyl)-6,7-dihydro-4H-pyrazolo[5,1-c][1,4]oxazine-2-sulfonamide] was tested, and the IC50 was at most 100 nM.
With `O=C(Nc1c(-c2ccn3cncc3c2)ccc2c1CCC2)NS(=O)(=O)c1cc2n(n1)CCO[C@@H]2C1CC1` (single isomer, unassigned) [Example 10] the IC50 was 100 to 500 nM.
`O=C(Nc1c(-c2ccc3ccnn3c2)ccc2c1CCC2)NS(=O)(=O)c1cc2n(n1)CCO[C@@H]2C1CC1` (single isomer, unassigned) [Example 2] gave an IC50 of 100 to 500 nM.
`O=C(Nc1c(-c2ccn3nncc3c2)ccc2c1CCC2)NS(=O)(=O)c1cc2n(n1)CCO[C@H]2C1CC1` (single isomer, unassigned) [Example 7] gave an IC50 of 100 to 500 nM.
In the case of `O=C(Nc1c(-c2ccc3cncn3c2)ccc2c1CCC2)NS(=O)(=O)c1cc2n(n1)CCO[C@@H]2C1CC1` (single isomer, unassigned) [Example 12], the IC50 is reported as 100 to 500 nM.
Work on `O=C(Nc1c(-c2ccn3nncc3c2)ccc2c1CCC2)NS(=O)(=O)c1cc2n(n1)CCO[C@@H]2C1CC1` (single isomer, unassigned) [Example 3] yielded an IC50 of at most 100 nM.
In the case of `Cc1cc2c(c(NC(=O)NS(=O)(=O)c3cc4n(n3)CCOC4(C)C)c1-c1ccn3nccc3c1)CCC2` [Example 22, 4,4-dimethyl-N-((6-methyl-5-(pyrazolo[1,5-a]pyridin-5-yl)-2,3-dihydro-1H-inden-4-yl)carbamoyl)-6,7-dihydro-4H-pyrazolo[5,1-c][1,4]oxazine-2-sulfonamide], the IC50 is reported as at most 100 nM.
For `O=C(Nc1c(-c2ccn3ncnc3c2)ccc2c1CCC2)NS(=O)(=O)c1cc2n(n1)CCO[C@@H]2C1CC1` (single isomer, unassigned) [Example 13], the IC50 was 100 to 500 nM.
For `CO[C@@H]1COc2c(S(=O)(=O)NC(=O)Nc3c4c(cc(C)c3-c3ccn5nccc5c3)CCC4)cnn2C1` [Example 27, (S)-6-methoxy-N-((6-methyl-5-(pyrazolo[1,5-a]pyridin-5-yl)-2,3-dihydro-1H-inden-4-yl)carbamoyl)-6,7-dihydro-5H-pyrazolo[5,1-b][1,3]oxazine-3-sulfonamide], the IC50 was at most 100 nM.
With `O=C(Nc1c(-c2ccc3ncnn3c2)ccc2c1CCC2)NS(=O)(=O)c1cc2n(n1)CCO[C@@H]2C1CC1` (single isomer, unassigned) [Example 4] the IC50 was 100 to 500 nM.
Compound `Cc1cc2c(c(NC(=O)NS(=O)(=O)c3cc4n(n3)CCOC43CCC3)c1-c1ccn3nccc3c1)CCC2` [Example 17, N-((6-methyl-5-(pyrazolo[1,5-a]pyridin-5-yl)-2,3-dihydro-1H-inden-4-yl)carbamoyl)-6′,7′-dihydrospiro[cyclobutane-1,4′-pyrazolo[5,1-c][1,4]oxazine]-2′-sulfonamide] has an IC50 of at most 100 nM.
Work on `Cc1cc2c(c(NC(=O)NS(=O)(=O)c3cnn4c3COCC4)c1-c1ccn3nccc3c1)CCC2` [Example 26, N-((6-methyl-5-(pyrazolo[1,5-a]pyridin-5-yl)-2,3-dihydro-1H-inden-4-yl)carbamoyl)-6,7-dihydro-4H-pyrazolo[5,1-c][1,4]oxazine-3-sulfonamide] yielded an IC50 of 100 to 500 nM.
In the case of `O=C(Nc1c(-c2ccn3nccc3c2)ccc2c1CCC2)NS(=O)(=O)c1cc2n(n1)CCO[C@H]2C1CC1` (single isomer, unassigned) [Example 5], the IC50 is reported as at most 100 nM.
Work on `O=C(Nc1c(-c2ccn3nccc3c2)ccc2c1CCC2)NS(=O)(=O)c1cc2n(n1)CCO[C@@H]2C1CC1` (single isomer, unassigned) [Example 1] yielded an IC50 of at most 100 nM.
